From patent publication US20240262819A1, “NOVEL COMPOUNDS HAVING INHIBITORY ACTIVITY AGAINST GLUCOSYLCERAMIDE SYNTHASE OR PHARMACEUTICALLY ACCEPTABLE SALT THEREOF, PROCESSES FOR PREPARING THE SAME, AND PHARMACEUTICAL COMPOSITIONS COMPRISING THE SAME” (YUHAN CORPORATION, priority 2021, published 2024)
Like-named read-outs stand apart in the source and are kept apart here.

Columns and labels:
[1] = target: glucosylceramide synthase (GCS) (Homo sapiens (Human), UniProt Q16739); assay: Evaluation of inhibitory activities against GCS (A549 cell lysate, NBD C6-ceramide, HPLC); format: biochemical
Chain of glucosylceramide synthase (GCS) (Q16739 whole entry): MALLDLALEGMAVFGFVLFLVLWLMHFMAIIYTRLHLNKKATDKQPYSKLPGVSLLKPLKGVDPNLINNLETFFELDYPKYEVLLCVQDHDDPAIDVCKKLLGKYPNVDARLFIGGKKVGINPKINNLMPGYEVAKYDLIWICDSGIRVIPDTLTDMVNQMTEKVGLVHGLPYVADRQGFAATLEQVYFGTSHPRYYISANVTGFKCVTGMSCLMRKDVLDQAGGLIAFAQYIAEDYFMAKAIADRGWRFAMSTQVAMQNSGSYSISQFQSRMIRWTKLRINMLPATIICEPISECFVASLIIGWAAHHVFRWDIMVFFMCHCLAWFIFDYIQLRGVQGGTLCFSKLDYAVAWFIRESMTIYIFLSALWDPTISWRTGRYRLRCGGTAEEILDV
Method: The inhibitory activities of the compounds of the present invention against GCS were evaluated, as follows, according to the method described in the known literature (Hayashi Y et al., A sensitive and reproducible assay to measure the activity of glucosylceramide synthase and lactosylceramide synthase using HPLC and fluorescent substrates, Analytical Biochemistry 345 (2005) 181-186). Ibiglustat, known as a GCS inhibitor, was used as a control.
After the cells attached to the culture dish were washed with phosphate buffered saline (PBS), the cells were scraped off with a cell scraper and then centrifuged (4000 rpm, 3 min, 4 °C) to collect the cells in a 50 ml tube. The cell pellets were suspended in a lysis buffer (50 mM HEPES, pH 7.3, containing 1× the protease/phosphatase inhibitor cocktail), lysed by sonication, and then the lysate was centrifuged (13000 rpm, 10 min, 4° C.). The obtained supernatant was used for the quantitative analysis of proteins. The amount of proteins was measured using the BCA protein assay kit, using bovine serum albumin as a standard.
Enzymatic reactions were initiated by sequentially adding the following reaction materials to a 96 deep-well plate. Thereafter, the enzymatic reactions were performed at 37° C. for 90 minutes.
The enzymatic reactions were stopped by adding 100 μl of chloroform/methanol (2:1, v/v). […] The lower layer (50 μl) was transferred to a new 96 deep-well plate and dried with a reduced concentrator.
Lipids were dissolved in 100 μl of isopropyl alcohol/n-hexane/H2O (55:44:1, v/v/v) and then transferred to a glass vial for HPLC (Agilent, 8004-HP-H/i3u). The sample (100 μl) was automatically loaded onto a normal-phase column (Intersil SIL 150A-5, 4.6×250 mm, GL Sciences, Japan) and then eluted at a flow rate of 2.0 ml/min with isopropyl alcohol/n-hexane/H2O (55:44:1, v/v/v). The fluorescence thereof was measured with a fluorescence detector (Agilent, 1260 FLD Spectra), using 470 nm and 530 nm as excitation and emission wavelengths, respectively.
Data analysis was performed by the following equations.
% Area (Sample)=Area (GlcCer)/[Area (Cer)+Area (GlcCer)]×100%
GCS activity=[Area (Sample)−Area (ibiglustat)]/[Area (DMSO)−Area (ibiglustat)]×100
The obtained % GCS activity data was analyzed with the software GraphPad Prism (Ver 5.01) to calculate the IC50 values.

[2] = tested on: GM1 production in Jurkat cells; assay: cells; format: cell-based
[3] = % GCS activity, A549 cell lysate, 37° C. for 90 minutes, read-out: IC50

CCCCOc1ccc(-c2cc3c(cc2OCC)[C@H](NC(=O)O[C@@H]2CN4CCC2CC4)C(C)(C)C3)cc1 [Example 135, (S)-quinuclidin-3-yl((R)-5-(4-butoxyphenyl)-6-ethoxy-2,2-dimethyl-2,3-dihydro-1H-inden-1-yl)carbamate]
IC50 [1]: 0.51 nM | IC50 ([2]; Homo sapiens, Jurkat, 72 h): 1.46 nM

CC1(C)Cc2cc(-c3ccc(OCC(F)(F)F)cc3Cl)ccc2[C@@H]1NC(=O)O[C@@H]1CN2CCC1CC2 [Example 55, (S)-quinuclidin-3-yl((R)-5-(2-chloro-4-(2,2,2-trifluoroethoxy)phenyl)-2,2-dimethyl-2,3-dihydro-1H-inden-1-yl)carbamate]
IC50 [1]: 0.63 nM | IC50 ([2]; Homo sapiens, Jurkat, 72 h): 2.2 nM

CCCCc1ccc(-c2cc3c(cc2C)[C@H](NC(=O)O[C@@H]2CN4CCC2CC4)C(C)(C)C3)cc1 [Example 118, (S)-quinuclidin-3-yl((R)-5-(4-butylphenyl)-2,2,6-trimethyl-2,3-dihydro-1H-inden-1-yl)carbamate]
IC50 [1]: 0.2 nM | IC50 ([2]; Homo sapiens, Jurkat, 72 h): 1.55 nM

CC(C)Cc1ccc(-c2cc3c(cc2F)[C@H](NC(=O)O[C@@H]2CN4CCC2CC4)C(C)(C)CC3)cc1 [Example 174, (S)-quinuclidin-3-yl((R)-7-fluoro-6-(4-isobutylphenyl)-2,2-dimethyl-1,2,3,4-tetrahydronaphthalen-1-yl)carbamate]
IC50 [1]: 0.35 nM | IC50 ([2]; Homo sapiens, Jurkat, 72 h): 0.9 nM

CCOc1cc2c(cc1-c1ccc(OC)cc1F)CC(C)(C)[C@H]2NC(=O)O[C@@H]1CN2CCC1CC2 [Example 138, (S)-quinuclidin-3-yl((R)-6-ethoxy-5-(2-fluoro-4-methoxyphenyl)-2,2-dimethyl-2,3-dihydro-1H-inden-1-yl)carbamate]
IC50 [1]: 1.87 nM | IC50 ([2]; Homo sapiens, Jurkat, 72 h): 28 nM

CC(C)(C)Oc1ccc(-c2cc3c(cc2F)[C@H](NC(=O)O[C@@H]2CN4CCC2CC4)C(C)(C)C3)cc1 [Example 101, (S)-quinuclidin-3-yl((R)-5-(4-(tert-butoxy)phenyl)-6-fluoro-2,2-dimethyl-2,3-dihydro-1H-inden-1-yl)carbamate]
IC50 [1]: 0.38 nM | IC50 ([2]; Homo sapiens, Jurkat, 72 h): 4.67 nM

CC(C)COc1ccc(-c2ccc3c(c2)CCC(C)(C)[C@H]3NC(=O)O[C@@H]2CN3CCC2CC3)cc1 [Example 146, (S)-quinuclidin-3-yl((R)-6-(4-isobutoxyphenyl)-2,2-dimethyl-1,2,3,4-tetrahydronaphthalen-1-yl)carbamate]
IC50 [1]: 0.17 nM | IC50 ([2]; Homo sapiens, Jurkat, 72 h): 0.68 nM

CC(C)c1ccc(-c2ccc3c(c2)CCC(C)(C)[C@H]3NC(=O)O[C@@H]2CN3CCC2CC3)cc1 [Example 141, (S)-quinuclidin-3-yl((R)-6-(4-isopropylphenyl)-2,2-dimethyl-1,2,3,4-tetrahydronaphthalen-1-yl)carbamate]
IC50 [1]: 0.43 nM | IC50 ([2]; Homo sapiens, Jurkat, 72 h): 2.77 nM

CCCCOc1ccc(-c2cc3c(cc2C)[C@H](NC(=O)O[C@@H]2CN4CCC2CC4)C(C)(C)C3)cc1 [Example 123, (S)-quinuclidin-3-yl((R)-5-(4-butoxyphenyl)-2,2,6-trimethyl-2,3-dihydro-1H-inden-1-yl)carbamate]
IC50 [1]: 0.24 nM | IC50 ([2]; Homo sapiens, Jurkat, 72 h): 1.26 nM

CCCOc1ccc(-c2ccc3c(c2)CC(C)(C)[C@H]3NC(=O)O[C@@H]2CN3CCC2CC3)cc1C [Example 47, (S)-quinuclidin-3-yl((R)-2,2-dimethyl-5-(3-methyl-4-propoxyphenyl)-2,3-dihydro-1H-inden-1-yl) carbamate]
IC50 [1, 3]: 1.89 nM | IC50 ([2]; read-out: IC50): 7.7 nM

CCOc1cccc(-c2ccc3c(c2)CCC(C)(C)[C@H]3NC(=O)O[C@@H]2CN3CCC2CC3)c1 [Example 154, (S)-quinuclidin-3-yl((R)-6-(3-ethoxyphenyl)-2,2-dimethyl-1,2,3,4-tetrahydronaphthalen-1-yl)carbamate]
IC50 [1]: 0.38 nM | IC50 ([2]; Homo sapiens, Jurkat, 72 h): 2.9 nM

CC(C)Oc1c(F)cc(-c2cc3c(cc2F)[C@H](NC(=O)O[C@@H]2CN4CCC2CC4)C(C)(C)C3)cc1F [Example 97, (S)-quinuclidin-3-yl((R)-5-(3,5-difluoro-4-isopropoxyphenyl)-6-fluoro-2,2-dimethyl-2,3-dihydro-1H-inden-1-yl)carbamate]
IC50 [1]: 1.06 nM | IC50 ([2]; Homo sapiens, Jurkat, 72 h): 13 nM

CCCOc1cccc(-c2cc3c(cc2F)[C@H](NC(=O)O[C@@H]2CN4CCC2CC4)C(C)(C)CC3)c1 [Example 192, (S)-quinuclidin-3-yl((R)-7-fluoro-2,2-dimethyl-6-(3-propoxyphenyl)-1,2,3,4-tetrahydronaphthalen-1-yl) carbamate]
IC50 [1, 3]: 0.53 nM | IC50 ([2]; read-out: IC50): 2.9 nM

CCOc1cc2c(cc1-c1ccc(OC(C)C)c(Cl)c1)CC(C)(C)[C@H]2NC(=O)O[C@@H]1CN2CCC1CC2 [Example 137, (S)-quinuclidin-3-yl((R)-5-(3-chloro-4-isopropoxyphenyl)-6-ethoxy-2,2-dimethyl-2,3-dihydro-1H-inden-1-yl)carbamate]
IC50 [1]: 3.04 nM | IC50 ([2]; Homo sapiens, Jurkat, 72 h): 12.8 nM

CC(C)Oc1c(Cl)cc(-c2ccc3c(c2)CC(C)(C)[C@H]3NC(=O)O[C@@H]2CN3CCC2CC3)cc1Cl [Example 40, (S)-quinuclidin-3-yl((R)-5-(3,5-dichloro-4-isopropoxyphenyl)-2,2-dimethyl-2,3-dihydro-1H-inden-1-yl)carbamate]
IC50 [1]: 3.21 nM | IC50 ([2]; Homo sapiens, Jurkat, 72 h): 1.6 nM

CC1(C)Cc2cc(-c3ccc(OCC(F)(F)F)cc3Cl)c(F)cc2[C@@H]1NC(=O)O[C@@H]1CN2CCC1CC2 [Example 114, (S)-quinuclidin-3-yl((R)-5-(2-chloro-4-(2,2,2-trifluoroethoxy)phenyl)-6-fluoro-2,2-dimethyl-2,3-dihydro-1H-inden-1-yl)carbamate]
IC50 [1]: 0.2 nM | IC50 ([2]; Homo sapiens, Jurkat, 72 h): 1.7 nM

CC(C)(C)Oc1ccc(-c2ccc3c(c2)CC(C)(C)[C@H]3NC(=O)O[C@@H]2CN3CCC2CC3)c(Cl)c1 [Example 42, (S)-quinuclidin-3-yl((R)-5-(4-(tert-butoxy)-2-chlorophenyl)-2,2-dimethyl-2,3-dihydro-1H-inden-1-yl)carbamate]
IC50 [1]: 0.3 nM | IC50 ([2]; Homo sapiens, Jurkat, 72 h): 2.6 nM

CC(C)COc1cc(F)cc(-c2cc3c(cc2F)[C@H](NC(=O)O[C@@H]2CN4CCC2CC4)C(C)(C)C3)c1 [Example 109, (S)-quinuclidin-3-yl((R)-6-fluoro-5-(3-fluoro-5-isobutoxyphenyl)-2,2-dimethyl-2,3-dihydro-1H-inden-1-yl)carbamate]
IC50 [1]: 0.69 nM | IC50 ([2]; Homo sapiens, Jurkat, 72 h): 11.5 nM

CCCCc1ccc(-c2ccc3c(c2)CCC(C)(C)[C@H]3NC(=O)O[C@@H]2CN3CCC2CC3)cc1 [Example 142, (S)-quinuclidin-3-yl((R)-6-(4-butylphenyl)-2,2-dimethyl-1,2,3,4-tetrahydronaphthalen-1-yl) carbamate]
IC50 [1, 3]: 0.23 nM | IC50 ([2]; read-out: IC50): 1.4 nM

(S)-quinuclidin-3-yl((R)-7-fluoro-6-(4-isopropylphenyl)-2,2-dimethyl-1,2,3,4-tetrahydronaphthalen-1-yl) carbamate [Example 172]
IC50 [1, 3]: 0.33 nM | IC50 ([2]; read-out: IC50): 0.86 nM

CC(C)Oc1c(Cl)cc(-c2cc3c(cc2F)[C@H](NC(=O)O[C@@H]2CN4CCC2CC4)C(C)(C)C3)cc1Cl [Example 100, (S)-quinuclidin-3-yl((R)-5-(3,5-dichloro-4-isopropoxyphenyl)-6-fluoro-2,2-dimethyl-2,3-dihydro-1H-inden-1-yl)carbamate]
IC50 [1]: 4.58 nM | IC50 ([2]; Homo sapiens, Jurkat, 72 h): 16.2 nM

CC1(C)Cc2cc(-c3ccc(OCC4CC4)c(Cl)c3)c(F)cc2[C@@H]1NC(=O)O[C@@H]1CN2CCC1CC2 [Example 99, (S)-quinuclidin-3-yl((R)-5-(3-chloro-4-(cyclopropylmethoxy)phenyl)-6-fluoro-2,2-dimethyl-2,3-dihydro-1H-inden-1-yl)carbamate]
IC50 [1]: 0.67 nM | IC50 ([2]; Homo sapiens, Jurkat, 72 h): 8.84 nM
